The values that follow are results of earlier work, collected in US6967218B2, “Pravastatin pharmaceutical formulations and methods of their use” (Biovail Laboratories, Inc., priority 2002, dated 2005).

The conditions of data set [1]: intravenous, healthy volunteers.
For data set [2] the following is noted: in vivo.
The conditions of data set [3]: Schalke et al, 1992.

For `CC[C@H](C)C(=O)O[C@H]1C[C@H](O)C=C2C=C[C@H](C)[C@H](CC[C@@H](O)C[C@@H](O)CC(=O)O)[C@H]21` [pravastatin, Pravastatin], in data set [1], the “share of total body clearance by non-renal routes (biliary excretion and biotransformation)” value is reported as 53%; the “share of total body clearance via renal excretion” value is recorded as “approximately 47%”. Further, the “decrease of systemic bioavailability after bedtime (PM) dose compared to morning (AM) dose” value (PM vs AM dose) was 60%. Moreover, the absolute bioavailability (oral, man) is on record as 17%. Further, for the setting “radiolabeled oral dose”, the “fraction of radiolabeled oral dose excreted in feces” value was 70% and the “fraction of radiolabeled oral dose excreted in urine” value was “Approximately 20%”. Moreover, the “first-pass extraction ratio in the liver” value in data set [2] is reported as 0.66. Further, the “adverse effect observed in treated patients” value in data set [3] was “Severe myopathy”.
